Assay results published in ChEMBL document CHEMBL3763069, “Synthesis of fluorinated carbazoles via C-H arylation catalyzed by Pd/Cu bimetal system and their antibacterial activities” (2016).
Values after ≈ are worked out from the molar mass of the structure shown. Values belong to the compound of their own block, whether it stands above or below them.

Assays:
Type in all cases: functional
Bacillus subtilis = assay: Antibacterial activity against Bacillus subtilis incubated for 20 hrs by microbroth dilution method
Staphylococcus aureus [1] = assay: Antibacterial activity against Staphylococcus aureus incubated for 20 hrs by microbroth dilution method
Escherichia coli = assay: Antibacterial activity against Escherichia coli incubated for 20 hrs by microbroth dilution method
Staphylococcus aureus [2] = assay: Antibacterial activity against methicillin-resistant Staphylococcus aureus incubated for 20 hrs by microbroth dilution method

Compound: Fc1ccc2c(c1)[nH]c1cc(F)cc(F)c12
MIC (Bacillus subtilis): 3.12 µg/mL (≈ 14.1 µM) | MIC (Staphylococcus aureus [1]): 1.56 µg/mL (≈ 7.05 µM) | MIC (Escherichia coli): 25 µg/mL (≈ 113 µM) | MIC (Staphylococcus aureus [2]): 12.5 µg/mL (≈ 56.5 µM)

Compound: CCc1ccc2[nH]c3c(C)ccc(F)c3c2c1
MIC (Bacillus subtilis): 3.12 µg/mL (≈ 13.7 µM) | MIC (Staphylococcus aureus [1]): 3.12 µg/mL (≈ 13.7 µM) | MIC (Staphylococcus aureus [2]): 3.12 µg/mL (≈ 13.7 µM)

Compound: Fc1cc(F)c2c(c1)[nH]c1ccccc12
MIC (Bacillus subtilis): 6.25 µg/mL (≈ 30.8 µM) | MIC (Staphylococcus aureus [1]): 25 µg/mL (≈ 123 µM) | MIC (Escherichia coli): 25 µg/mL (≈ 123 µM) | MIC (Staphylococcus aureus [2]): 12.5 µg/mL (≈ 61.5 µM)

Compound: Fc1ccc2[nH]c3c(F)cc(F)c(F)c3c2c1
MIC (Bacillus subtilis): 3.12 µg/mL (≈ 13.1 µM) | MIC (Staphylococcus aureus [1]): 1.56 µg/mL (≈ 6.52 µM) | MIC (Staphylococcus aureus [2]): 6.25 µg/mL (≈ 26.1 µM)

Compound: Fc1cc(F)c2[nH]c3cc(C(F)(F)F)ccc3c2c1F
MIC (Bacillus subtilis): 0.78 µg/mL (≈ 2.7 µM) | MIC (Staphylococcus aureus [1]): 0.78 µg/mL (≈ 2.7 µM) | MIC (Staphylococcus aureus [2]): 3.12 µg/mL (≈ 10.8 µM)

Compound: Cc1ccc(F)c2c1[nH]c1ccccc12
MIC (Bacillus subtilis): 6.25 µg/mL (≈ 31.4 µM) | MIC (Staphylococcus aureus [1]): 50 µg/mL (≈ 251 µM) | MIC (Staphylococcus aureus [2]): 12.5 µg/mL (≈ 62.7 µM)

Compound: CCc1ccc2[nH]c3cc(F)cc(F)c3c2c1
MIC (Bacillus subtilis): 3.12 µg/mL (≈ 13.5 µM) | MIC (Staphylococcus aureus [1]): 1.56 µg/mL (≈ 6.75 µM) | MIC (Staphylococcus aureus [2]): 3.12 µg/mL (≈ 13.5 µM)

Compound: Fc1ccc2c(c1)[nH]c1c(F)cc(F)c(F)c12
MIC (Bacillus subtilis): 3.12 µg/mL (≈ 13.1 µM) | MIC (Staphylococcus aureus [1]): 3.12 µg/mL (≈ 13.1 µM) | MIC (Staphylococcus aureus [2]): 6.25 µg/mL (≈ 26.1 µM)

Compound: CCc1ccc2[nH]c3c(F)cc(F)c(F)c3c2c1
MIC (Bacillus subtilis): 3.12 µg/mL (≈ 12.5 µM) | MIC (Staphylococcus aureus [1]): 3.12 µg/mL (≈ 12.5 µM) | MIC (Staphylococcus aureus [2]): 3.12 µg/mL (≈ 12.5 µM)

Compound: Cc1ccc2[nH]c3cc(F)cc(F)c3c2c1
MIC (Bacillus subtilis): 3.12 µg/mL (≈ 14.4 µM) | MIC (Staphylococcus aureus [1]): 100 µg/mL (≈ 460 µM) | MIC (Staphylococcus aureus [2]): 3.12 µg/mL (≈ 14.4 µM)

Compound: Cc1ccc2c(c1)[nH]c1c(F)cc(F)c(F)c12
MIC (Bacillus subtilis): 3.12 µg/mL (≈ 13.3 µM) | MIC (Staphylococcus aureus [1]): 6.25 µg/mL (≈ 26.6 µM) | MIC (Staphylococcus aureus [2]): 6.25 µg/mL (≈ 26.6 µM)

Compound: Cc1ccc2[nH]c3c(C)ccc(F)c3c2c1
MIC (Bacillus subtilis): 6.25 µg/mL (≈ 29.3 µM) | MIC (Staphylococcus aureus [1]): 6.25 µg/mL (≈ 29.3 µM) | MIC (Staphylococcus aureus [2]): 6.25 µg/mL (≈ 29.3 µM)

Compound: Fc1cc(F)c2c(c1)[nH]c1ccc(F)cc12
MIC (Bacillus subtilis): 3.12 µg/mL (≈ 14.1 µM) | MIC (Staphylococcus aureus [1]): 1.56 µg/mL (≈ 7.05 µM) | MIC (Escherichia coli): 12.5 µg/mL (≈ 56.5 µM) | MIC (Staphylococcus aureus [2]): 3.12 µg/mL (≈ 14.1 µM)

Compound: Cc1ccc(F)c2c1[nH]c1cc(C(F)(F)F)ccc12
MIC (Bacillus subtilis): 3.12 µg/mL (≈ 11.7 µM) | MIC (Staphylococcus aureus [1]): 1.56 µg/mL (≈ 5.84 µM) | MIC (Staphylococcus aureus [2]): 3.12 µg/mL (≈ 11.7 µM)

Compound: Cc1ccc2[nH]c3c(F)cc(F)c(F)c3c2c1
MIC (Bacillus subtilis): 3.12 µg/mL (≈ 13.3 µM) | MIC (Staphylococcus aureus [1]): 6.25 µg/mL (≈ 26.6 µM) | MIC (Staphylococcus aureus [2]): 6.25 µg/mL (≈ 26.6 µM)

Compound: Cc1ccc(F)c2c1[nH]c1cc(F)ccc12
MIC (Bacillus subtilis): 6.25 µg/mL (≈ 28.8 µM) | MIC (Staphylococcus aureus [1]): 50 µg/mL (≈ 230 µM) | MIC (Staphylococcus aureus [2]): 6.26 µg/mL (≈ 28.8 µM)

Compound: Fc1cc(F)c2c(c1)[nH]c1cc(C(F)(F)F)ccc12
MIC (Bacillus subtilis): 0.78 µg/mL (≈ 2.88 µM) | MIC (Staphylococcus aureus [1]): 0.39 µg/mL (≈ 1.44 µM) | MIC (Staphylococcus aureus [2]): 3.12 µg/mL (≈ 11.5 µM)

Compound: Cc1ccc2c(c1)[nH]c1cc(F)cc(F)c12
MIC (Bacillus subtilis): 3.12 µg/mL (≈ 14.4 µM) | MIC (Staphylococcus aureus [1]): 3.12 µg/mL (≈ 14.4 µM) | MIC (Staphylococcus aureus [2]): 3.12 µg/mL (≈ 14.4 µM)

Compound: Fc1cc(F)c2[nH]c3ccccc3c2c1F
MIC (Bacillus subtilis): 6.25 µg/mL (≈ 28.3 µM) | MIC (Staphylococcus aureus [1]): 6.25 µg/mL (≈ 28.3 µM) | MIC (Staphylococcus aureus [2]): 12.5 µg/mL (≈ 56.5 µM)

MIC (Bacillus subtilis): < 0.2 µg/mL | MIC (Staphylococcus aureus [1]): 0.2 µg/mL (≈ 0.572 µM) | MIC (Escherichia coli): 3.12 µg/mL (≈ 8.94 µM)
Compound: CC1(C)S[C@@H]2[C@H](NC(=O)[C@H](N)c3ccccc3)C(=O)N2[C@H]1C(=O)O [AMPICILLIN]

Compound: C[C@@H](O)[C@H]1C(=O)N2C(C(=O)O)=C(S[C@@H]3CN[C@H](C(=O)N(C)C)C3)[C@H](C)[C@H]12 [MEROPENEM]
MIC (Bacillus subtilis): 3.12 µg/mL (≈ 8.15 µM) | MIC (Staphylococcus aureus [1]): 0.78 µg/mL (≈ 2.03 µM) | MIC (Escherichia coli): 0.05 µg/mL (≈ 0.13 µM) | MIC (Staphylococcus aureus [2]): 0.78 µg/mL (≈ 2.03 µM)

Compound: CN[C@@H]1[C@H](O[C@H]2[C@H](O[C@H]3[C@H](O)[C@@H](O)[C@H](N=C(N)N)[C@@H](O)[C@@H]3N=C(N)N)O[C@@H](C)[C@]2(O)C=O)O[C@@H](CO)[C@H](O)[C@H]1O [STREPTOMYCIN]
MIC (Bacillus subtilis): 3.21 µg/mL (≈ 5.53 µM) | MIC (Staphylococcus aureus [1]): 3.12 µg/mL (≈ 5.37 µM) | MIC (Escherichia coli): 3.12 µg/mL (≈ 5.37 µM) | MIC (Staphylococcus aureus [2]): 3.12 µg/mL (≈ 5.37 µM)
